Experimental data taken from patent US9452177B2, “Vitamin D compounds and methods for reducing ocular hypertension (OHT)” (Wisconsin Alumni Research Foundation, priority 2008, dated 2016).

Assays:
[1] = system: eyes of ocular normotensive cynomolgus monkeys; assay: Intraocular pressure (IOP) by Goldmann applanation tonometry after 5 twice-daily unilateral topical treatments; format: in vivo, cynomolgus monkeys (Macaca fascicularis); conditions: for IOP less than at baseline prior to the 5th treatment: one eye, both treated and control eye; for IOP decrease prior to the fifth treatment on day 3: both eyes
Description: Ocular normotensive adult cynomolgus monkeys (Macaca fascicularis), of either sex, weighing 3-7 kg were anesthetized with i.m. ketamine HCl (3-25 mg/kg, supplemented with 1-10 mg/kg) for IOP and topical drop administration. All monkeys were free of any ocular abnormalities according to slit lamp biomicroscopy at the time measurements were taken. The monkeys were provided by the Primate Center at the University of Wisconsin-Madison. All experiments were done in accordance with the ARVO Statement on the Use of Animals in Ophthalmic and Vision Research.
The intraocular pressure (IOP) was determined with a “minified” Goldmann applanation tonometer [Kaufman, 1980] using HALF AND HALF™ creamer solution (Borden) as the tear film indicator [Croft, 1997] with the monkey lying prone in a head holder and the eyes positioned 4 to 8 cm above the heart. All monkeys were examined by slit-lamp before the first IOP measurement in each protocol. For each eye, two or three IOP measurements were averaged as a baseline.
(§1) Under ketamine anesthesia (KETAJECT™, Phoenix Pharmaceutical, St Joseph, Mo. (3-25 mg/kg i.m., supplemented with 1-10 mg/kg i.m. as needed) baseline IOP was determined, usually between 7:30 and 9 am (2 readings, 5 minutes apart; if IOP baseline measurements were not within 2-3 mm Hg of each other, a 3rd reading was taken 5 min later). Baseline IOP was at least 15 mmHg if possible. A baseline blood sample was taken from the femoral artery or vein, or sometimes the brachial vein (1-2 ml). This was allowed to clot and then spun down (3000 rpm for 10 min, Damon/IEC NH-SII centrifuge) and the serum removed and frozen at −20 C for no more than 1 week. Baseline systolic, diastolic and mean arterial pressure as well as heart rate were recorded with the Dinamap monitor from a cuff placed around the arm or the leg.
After baseline measurements, the monkey was place supine with the eye pointing up and the eyelid held open. A 5 μl drop of test material or vehicle was delivered to opposite eyes. The eyelid was held open for at least 30 sec and the eye was maintained in the upward position for an additional 30 sec. The monkey was then returned to its cage and allowed to wake up. In the afternoon, at least 6 hours after the morning treatment, another treatment was administered. On the second day, dosing was repeated in the am and pm.
On the 3th day, prior to the 5th treatment, baseline IOP, biomicroscopy and MAP were determined. Preliminary studies indicated an effect was observed after these treatments but not after a single treatment. Following the 5th dose, IOP was measured at 1, 2, 3, 4, 5, 6, 7, 8, 12 (if possible), 24, and sometimes 48 hr. Biomicroscopy was done at 1, 3, 6, 24 and sometimes 48 hr. MAP on day 3 (some protocols) was determined at 1, 2, 3, 4, 5, 6, 7, 8, 24 and sometimes 48 hr if possible. Blood samples after the 5th treatment were collected at 6, 24, and sometimes 48 hr. For some protocols, IOP was also measured prior to each treatment; MAP was measured prior to the morning treatment; blood was collected prior to the afternoon treatment. Subsequent screening protocols will not include the MAP and blood collections and will only measure IOP at baseline and prior to and for 1-6 hr after the 5th treatment.
Adult cynomolgus monkeys (Macaca fascicularis) of either sex were anesthetized with intramuscular ketamine HCl (10 mg/kg initial, 5 mg/kg supplemental). Baseline pretreatment IOP was determined by Goldmann applanation tonometry [Kaufman, 1980] with […] used as a tear film indicator [Croft, 1997]. Two baseline IOP measurements were taken 5 minutes apart. […]

[2] = Serum Ca2+ level after ocular topical applications; format: in vivo, cynomolgus monkeys (Macaca fascicularis); conditions: 5 μg, 3 days, total 5 unilateral topical applications
Description: as §1
On the 3th day, prior to the 5th treatment, baseline IOP, biomicroscopy and MAP were determined. […] Following the 5th dose, IOP was measured at 1, 2, 3, 4, 5, 6, 7, 8, 12 (if possible), 24, and sometimes 48 hr. […] MAP on day 3 (some protocols) was determined at 1, 2, 3, 4, 5, 6, 7, 8, 24 and sometimes 48 hr if possible. […] For some protocols, IOP was also measured prior to each treatment; MAP was measured prior to the morning treatment; blood was collected prior to the afternoon treatment. […]

[3] = Example 3, 5 μg unilateral topical

## C=C1/C(=C\C=C2/CCC[C@]3(C)[C@@H]([C@H](C)CCCC(C)(C)O)CC[C@@H]23)C[C@@H](O)C[C@@H]1O [1,25-(OH)2D3, 1α,25-dihydroxyvitamin D3]
[1]; Example 1, 5 μg (2MD 6 μg) in 5 μl propylene glycol one eye, vehicle opposite eye
  IOP in treated eye compared with control eye: consistently, but not significantly less than in the control eye
[1]; Example 1, 5 μg in 5 μl propylene glycol twice daily, n=8
  IOP less than at baseline prior to the 5th treatment: 3-4 mmHg
[1]; Example 1, 5 μg twice daily, n=8, p<0.05
  IOP less than at baseline prior to the 5th treatment: ~17%
[1]; Example 1, 5 μg, after 5th treatment
  time of gradual recovery of IOP toward baseline: 24 to 48 h
[1]; Example 1, 5 μg, hr 1-4 after 5th dose
  additional IOP decrease after the 5th treatment: 1-2 mmHg
[1]; Example 1, 5 μg, hr 1-4 after 5th dose, p<0.02
  total IOP reduction after the 5th treatment: 20-30%
[1]; Example 1, 5 uniocular topical treatments
  strongest response, IOP decrease: up to 40%
[1]; Example 1, 5 uniocular topical treatments at the same dose
  rank order of ocular hypotensive effect: 1,25(OH)2D3>2MD>AGR
[1]; Example 3, 0.1 μg unilateral topical, either eye
  effect on IOP: did not have any significant effect on IOP in either eyes
[1]; Example 3, 1 μg
  IOP reduction in control versus treated eyes: stronger IOP reduction in the fellow control eyes than in the treated eyes
[1]; Example 3, 1 μg unilateral topical
  IOP reduction (bilateral): 20%
[1]; Example 3, 5 μg
  IOP difference between treated and control eyes: no significant differences between the two eyes except for the time period of 12 h or longer
[1]; Example 3, 5 μg in opposite eye
  IOP reduction, control eyes: 27%
[1]; [3]
  IOP reduction, treated eye: 30%
  IOP decrease prior to the fifth treatment on day 3: ~3 mmHg
[1]; Example 3, 5 μg unilateral topical, p<0.05
  IOP decrease prior to the fifth treatment on day 3: approximately 20%
[1]; Example 3, 5 μg, after fifth treatment
  time of return of IOP to near pretreatment baseline: 48 h
[1]; topical application, nonhuman primates
  duration of IOP-lowering effect: more than 12 hours
[2]
  blood serum calcium levels: did not change
